From PubChem BioAssay (NCI)
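Cultured in 96-well plates, cells were exposed to test compound for 48 hours across five concentrations. The concentration for 50% growth inhibition is given as GI50. TGI marks complete inhibition of growth.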

Columns and labels:
Assay in all cases: inhibition of tumour cell growth, NCI panel, 48 h
786-0 renal = test system: 786-0 renal
A498 renal = test system: A498 renal
A549 NSCLC = test system: A549 NSCLC
ACHN renal = test system: ACHN renal
BT-549 breast = test system: BT-549 breast
CAKI-1 renal = test system: CAKI-1 renal
CCRF-CEM leukemia = test system: CCRF-CEM leukemia
COLO 205 colon = test system: COLO 205 colon
DU-145 prostate = test system: DU-145 prostate
EKVX NSCLC = test system: EKVX NSCLC
HCC-2998 colon = test system: HCC-2998 colon
HCT-15 colon = test system: HCT-15 colon
HL-60(TB) leukemia = test system: HL-60(TB) leukemia
HOP-62 NSCLC = test system: HOP-62 NSCLC
HOP-92 NSCLC = test system: HOP-92 NSCLC
HS 578T breast = test system: HS 578T breast
HT29 colon = test system: HT29 colon
IGROV1 ovarian = test system: IGROV1 ovarian
KM12 colon = test system: KM12 colon
LOX IMVI melanoma = test system: LOX IMVI melanoma
M14 melanoma = test system: M14 melanoma
MALME-3M melanoma = test system: MALME-3M melanoma
MCF7 breast = test system: MCF7 breast
MDA-MB-231 breast = test system: MDA-MB-231 breast
MOLT-4 leukemia = test system: MOLT-4 leukemia
NCI-H226 lung = test system: NCI-H226 lung
NCI-H23 lung = test system: NCI-H23 lung
NCI-H460 lung = test system: NCI-H460 lung
NCI/ADR-RES ovarian = test system: NCI/ADR-RES ovarian
OVCAR-3 ovarian = test system: OVCAR-3 ovarian
OVCAR-4 ovarian = test system: OVCAR-4 ovarian
OVCAR-5 ovarian = test system: OVCAR-5 ovarian
OVCAR-8 ovarian = test system: OVCAR-8 ovarian
PC-3 prostate = test system: PC-3 prostate
RPMI-8226 leukemia = test system: RPMI-8226 leukemia
RXF 393 renal = test system: RXF 393 renal
SF-268 CNS = test system: SF-268 CNS
SF-295 CNS = test system: SF-295 CNS
SF-539 CNS = test system: SF-539 CNS
SK-MEL-2 melanoma = test system: SK-MEL-2 melanoma
SK-MEL-28 melanoma = test system: SK-MEL-28 melanoma
SN12C renal = test system: SN12C renal
SNB-19 CNS = test system: SNB-19 CNS
SNB-75 CNS = test system: SNB-75 CNS
SW-620 colon = test system: SW-620 colon
T-47D breast = test system: T-47D breast
TK-10 renal = test system: TK-10 renal
UACC-257 melanoma = test system: UACC-257 melanoma
UACC-62 melanoma = test system: UACC-62 melanoma
UO-31 renal = test system: UO-31 renal
K-562 leukemia = test system: K-562 leukemia
NCI-H522 lung = test system: NCI-H522 lung
SK-MEL-5 melanoma = test system: SK-MEL-5 melanoma
SK-OV-3 ovarian = test system: SK-OV-3 ovarian
SR leukemia = test system: SR leukemia
U251 CNS = test system: U251 CNS

COc1ccc2c(c1)oc1c(C)c3c(c(C)c12)C(=O)N(N)C3=O
GI50 (786-0 renal): 22.7 µM
TGI (786-0 renal): > 100 µM
GI50 (A498 renal): 4.25 µM
TGI (A498 renal): > 100 µM
GI50 (A549 NSCLC): > 100 µM
TGI (A549 NSCLC): > 100 µM
GI50 (ACHN renal): 7.53 µM
TGI (ACHN renal): > 100 µM
GI50 (BT-549 breast): 5.2 µM
TGI (BT-549 breast): > 100 µM
GI50 (CAKI-1 renal): > 100 µM
TGI (CAKI-1 renal): > 100 µM
GI50 (CCRF-CEM leukemia): > 100 µM
TGI (CCRF-CEM leukemia): > 100 µM
GI50 (COLO 205 colon): > 100 µM
TGI (COLO 205 colon): > 100 µM
GI50 (DU-145 prostate): > 100 µM
TGI (DU-145 prostate): > 100 µM
GI50 (EKVX NSCLC): > 100 µM
TGI (EKVX NSCLC): > 100 µM
GI50 (HCC-2998 colon): > 100 µM
TGI (HCC-2998 colon): > 100 µM
GI50 (HCT-15 colon): > 100 µM
TGI (HCT-15 colon): > 100 µM
GI50 (HL-60(TB) leukemia): > 100 µM
TGI (HL-60(TB) leukemia): > 100 µM
GI50 (HOP-62 NSCLC): 25 µM
TGI (HOP-62 NSCLC): > 100 µM
GI50 (HOP-92 NSCLC): > 100 µM
TGI (HOP-92 NSCLC): > 100 µM
GI50 (HS 578T breast): 32.6 µM
TGI (HS 578T breast): > 100 µM
GI50 (HT29 colon): > 100 µM
TGI (HT29 colon): > 100 µM
GI50 (IGROV1 ovarian): > 100 µM
TGI (IGROV1 ovarian): > 100 µM
GI50 (KM12 colon): > 100 µM
TGI (KM12 colon): > 100 µM
GI50 (LOX IMVI melanoma): > 100 µM
TGI (LOX IMVI melanoma): > 100 µM
GI50 (M14 melanoma): > 100 µM
TGI (M14 melanoma): > 100 µM
GI50 (MALME-3M melanoma): > 100 µM
TGI (MALME-3M melanoma): > 100 µM
GI50 (MCF7 breast): 50.7 µM
TGI (MCF7 breast): > 100 µM
GI50 (MDA-MB-231 breast): 61.9 µM
TGI (MDA-MB-231 breast): > 100 µM
GI50 (MOLT-4 leukemia): 23.4 µM
TGI (MOLT-4 leukemia): > 100 µM
GI50 (NCI-H226 lung): 40.4 µM
TGI (NCI-H226 lung): > 100 µM
GI50 (NCI-H23 lung): > 100 µM
TGI (NCI-H23 lung): > 100 µM
GI50 (NCI-H460 lung): 3.49 µM
TGI (NCI-H460 lung): > 100 µM
GI50 (NCI/ADR-RES ovarian): > 100 µM
TGI (NCI/ADR-RES ovarian): > 100 µM
GI50 (OVCAR-3 ovarian): > 100 µM
TGI (OVCAR-3 ovarian): > 100 µM
GI50 (OVCAR-4 ovarian): > 100 µM
TGI (OVCAR-4 ovarian): > 100 µM
GI50 (OVCAR-5 ovarian): > 100 µM
TGI (OVCAR-5 ovarian): > 100 µM
GI50 (OVCAR-8 ovarian): 7.89 µM
TGI (OVCAR-8 ovarian): > 100 µM
GI50 (PC-3 prostate): > 100 µM
TGI (PC-3 prostate): > 100 µM
GI50 (RPMI-8226 leukemia): > 100 µM
TGI (RPMI-8226 leukemia): > 100 µM
GI50 (RXF 393 renal): 8.21 µM
TGI (RXF 393 renal): > 100 µM
GI50 (SF-268 CNS): 21.9 µM
TGI (SF-268 CNS): > 100 µM
GI50 (SF-295 CNS): > 100 µM
TGI (SF-295 CNS): > 100 µM
GI50 (SF-539 CNS): 78.8 µM
TGI (SF-539 CNS): > 100 µM
GI50 (SK-MEL-2 melanoma): > 100 µM
TGI (SK-MEL-2 melanoma): > 100 µM
GI50 (SK-MEL-28 melanoma): > 100 µM
TGI (SK-MEL-28 melanoma): > 100 µM
GI50 (SN12C renal): > 100 µM
TGI (SN12C renal): > 100 µM
GI50 (SNB-19 CNS): > 100 µM
TGI (SNB-19 CNS): > 100 µM
GI50 (SNB-75 CNS): 4.37 µM
TGI (SNB-75 CNS): > 100 µM
GI50 (SW-620 colon): > 100 µM
TGI (SW-620 colon): > 100 µM
GI50 (T-47D breast): > 100 µM
TGI (T-47D breast): > 100 µM
GI50 (TK-10 renal): > 100 µM
TGI (TK-10 renal): > 100 µM
GI50 (UACC-257 melanoma): > 100 µM
TGI (UACC-257 melanoma): > 100 µM
GI50 (UACC-62 melanoma): > 100 µM
TGI (UACC-62 melanoma): > 100 µM
GI50 (UO-31 renal): > 100 µM
TGI (UO-31 renal): > 100 µM

C=CCn1c(SCC(=O)Nc2ccc(C(=O)/C=C/c3cc(OC)c(OC)c(OC)c3)cc2)nnc1-c1ccc(Cl)cc1
GI50 (786-0 renal): 2.16 µM
TGI (786-0 renal): 5.59 µM
GI50 (A498 renal): 2.47 µM
TGI (A498 renal): 10.6 µM
GI50 (A549 NSCLC): 3.61 µM
TGI (A549 NSCLC): 17.3 µM
GI50 (ACHN renal): 3.67 µM
TGI (ACHN renal): 22 µM
GI50 (BT-549 breast): 2.4 µM
TGI (BT-549 breast): 7.79 µM
GI50 (CCRF-CEM leukemia): 2.38 µM
TGI (CCRF-CEM leukemia): 13.3 µM
GI50 (COLO 205 colon): 4.92 µM
TGI (COLO 205 colon): 67.3 µM
GI50 (DU-145 prostate): 3.73 µM
TGI (DU-145 prostate): 40.9 µM
GI50 (EKVX NSCLC): 2.92 µM
TGI (EKVX NSCLC): 15.5 µM
GI50 (HCC-2998 colon): 2.36 µM
TGI (HCC-2998 colon): 5.67 µM
GI50 (HCT-15 colon): 2.68 µM
TGI (HCT-15 colon): 18.8 µM
GI50 (HL-60(TB) leukemia): 2.65 µM
TGI (HL-60(TB) leukemia): 11.3 µM
GI50 (HOP-62 NSCLC): 3.76 µM
TGI (HOP-62 NSCLC): 23.8 µM
GI50 (HOP-92 NSCLC): 2.47 µM
TGI (HOP-92 NSCLC): 11.8 µM
GI50 (HS 578T breast): 5.81 µM
TGI (HS 578T breast): > 100 µM
GI50 (HT29 colon): 2.33 µM
TGI (HT29 colon): 5.69 µM
GI50 (IGROV1 ovarian): 2.76 µM
TGI (IGROV1 ovarian): 13 µM
GI50 (K-562 leukemia): 1.7 µM
TGI (K-562 leukemia): 10.5 µM
GI50 (KM12 colon): 1.97 µM
TGI (KM12 colon): 5.23 µM
GI50 (MALME-3M melanoma): 6.69 µM
TGI (MALME-3M melanoma): 61.5 µM
GI50 (MCF7 breast): 0.38 µM
TGI (MCF7 breast): 11.2 µM
GI50 (MDA-MB-231 breast): 3.08 µM
TGI (MDA-MB-231 breast): > 100 µM
GI50 (MOLT-4 leukemia): 2.66 µM
TGI (MOLT-4 leukemia): 11.4 µM
GI50 (NCI-H226 lung): 1.94 µM
TGI (NCI-H226 lung): 7.42 µM
GI50 (NCI-H23 lung): 2.7 µM
TGI (NCI-H23 lung): 10.5 µM
GI50 (NCI-H460 lung): 3.41 µM
TGI (NCI-H460 lung): 13.5 µM
GI50 (NCI-H522 lung): 3.25 µM
TGI (NCI-H522 lung): 17.4 µM
GI50 (NCI/ADR-RES ovarian): 4.74 µM
TGI (NCI/ADR-RES ovarian): > 100 µM
GI50 (OVCAR-3 ovarian): 2.41 µM
TGI (OVCAR-3 ovarian): 5.93 µM
GI50 (OVCAR-4 ovarian): 3.1 µM
TGI (OVCAR-4 ovarian): 21 µM
GI50 (OVCAR-5 ovarian): 4.75 µM
TGI (OVCAR-5 ovarian): 67.7 µM
GI50 (OVCAR-8 ovarian): 2.79 µM
TGI (OVCAR-8 ovarian): 15 µM
GI50 (PC-3 prostate): 3.2 µM
TGI (PC-3 prostate): 26.4 µM
GI50 (RPMI-8226 leukemia): 0.253 µM
TGI (RPMI-8226 leukemia): 1.03 µM
GI50 (RXF 393 renal): 1.47 µM
TGI (RXF 393 renal): 3.37 µM
GI50 (SF-268 CNS): 4.32 µM
TGI (SF-268 CNS): > 100 µM
GI50 (SF-295 CNS): 4.49 µM
TGI (SF-295 CNS): 48.8 µM
GI50 (SF-539 CNS): 2.96 µM
TGI (SF-539 CNS): 9.83 µM
GI50 (SK-MEL-2 melanoma): 4.52 µM
TGI (SK-MEL-2 melanoma): 36.6 µM
GI50 (SK-MEL-28 melanoma): 4.23 µM
TGI (SK-MEL-28 melanoma): 54.6 µM
GI50 (SK-MEL-5 melanoma): 2.53 µM
TGI (SK-MEL-5 melanoma): 14.3 µM
GI50 (SK-OV-3 ovarian): 6.01 µM
TGI (SK-OV-3 ovarian): 58.3 µM
GI50 (SN12C renal): 3.43 µM
TGI (SN12C renal): > 100 µM
GI50 (SNB-19 CNS): 3.64 µM
TGI (SNB-19 CNS): > 100 µM
GI50 (SNB-75 CNS): 1.79 µM
TGI (SNB-75 CNS): 12.8 µM
GI50 (SR leukemia): 1.52 µM
TGI (SR leukemia): 7.45 µM
GI50 (SW-620 colon): 3 µM
TGI (SW-620 colon): > 100 µM
GI50 (T-47D breast): 2.24 µM
TGI (T-47D breast): 30.6 µM
GI50 (TK-10 renal): 7.87 µM
TGI (TK-10 renal): 61.3 µM
GI50 (U251 CNS): 1.73 µM
TGI (U251 CNS): 4.38 µM
GI50 (UACC-257 melanoma): 6.38 µM
TGI (UACC-257 melanoma): 59.6 µM
GI50 (UACC-62 melanoma): 2.94 µM
TGI (UACC-62 melanoma): 25 µM
GI50 (UO-31 renal): 1.98 µM
TGI (UO-31 renal): 8.34 µM
